Source: patent US9688664B2, “Modulators of fatty acid amide hydrolase” (JANSSEN PHARMACEUTICA NV, priority 2010, dated 2017)
“Also recorded” adds a separate entry of the source. Read-outs that look alike come from different tables or passages of the source.

Tests used:
[1] = tested on: rats; conditions: rat; cited from earlier work
[2] = tested on: rats; conditions: cited from earlier work
[3] = tested on: rats; conditions: cited from earlier work; remark: listed apart in the source
[4] = target: CYP2D6 (Homo sapiens (Human), UniProt P10635); assay: Drug-Drug Interaction (DDI) assay, CYP inhibition in human liver microsomes
Procedure: Drug-Drug Interaction (DDI) Assay
The assay was set up and executed using a Biomek FXp robotic liquid handling workstation (Beckman Coulter Corp., Fullerton, Calif.), integrated with a Cytomat shaking incubator set at 37° C. […] A batch of human liver microsomes from 50 donors, pooled and characterized by BD Gentest, (Cat #457111, lot 01220, 20 mg/mL in 250 mM sucrose) was used. Each substrate was incubated at a protein concentration of 0.1, 0.15 or 0.2 mg/mL in a total incubation volume of 0.16 mL. The incubates were prepared in 100 mM potassium phosphate buffer (pH 7.4) supplemented with 5 mM magnesium chloride and 1 mM EDTA. Quinidine was used as a positive control inhibitor for CYP2D6. Quinidine was prepared as a working solution in organic solvent (primarily methanol, with DMSO and acetonitrile as secondary solvents) and was spiked into the microsomal suspension to yield the desired concentration level. The solution was then serially diluted with additional microsomal suspension to yield eight concentration levels. Final organic content was less than 0.07%. […] The final organic content was 0.2%. Incubations were performed in triplicate for each probe substrate.
The control inhibitor (quinidine) and marker substrate (dextromethorphan or bufuralol) were transferred to the incubation vessels (60 μL aliquots each). After a pre-incubation period at 37° C., the reactions were initiated by the addition of a 40 μL aliquot of NADPH regenerating system (BD Gentest). […] Incubation times were 12 minutes for both dextromethorphan and bufuralol. Reactions were terminated by the direct addition of acetonitrile (160 μL) to the incubation mix followed by transfer to a pooling plate containing additional acetonitrile (400 μL).
The incubation reactions were pooled by equal test compound or control inhibitor concentration, transferred to a Phenomenex Strata™ Impact protein precipitation filter plate containing acetonitrile and internal standards (100 μL of a mixture of the following deuterated compounds ranging in concentration from 0.5 to 2.8 μM: hydroxybufuralol-d9, dextrorphan-d3). The resulting filtrate was evaporated to dryness under a nitrogen flow, then reconstituted in 250 μL mobile phase (1:1 methanol:water, containing 0.1% acetic acid). Samples and standards were analyzed on a Sciex API4000 triple quadrupole mass spectrometer. The data were acquired in Analyst 1.4.1 (Applied Biosystems/MDS Sciex). For IC50 assays, the area ratios of the metabolite and internal standard chromatographic peaks were transferred to SigmaPlot (version 8.0) and plotted on a semi-log scale (percent residual activity vs. inhibitor concentration) to determine the IC50 value.

[5] = tested on: rat; assay: Primary Observation (Irwin) Test in the rat; format: in vivo; conditions: for Hypothermia: at 15 to 60 min and at 180 min; for Decreased muscle tone (rats affected/tested): at 60 to 120 min
Procedure: Primary Observation (Irwin) Test in the Rat
The method, which detects the first toxic dose, the active dose-range and the main effects of a test substance on behavior and physiological function, follows that described by Irwin et al., Psychopharmacologia, 1968, 13, 222-257. […] All animals within a treatment group were observed simultaneously. Behavioral modifications, physiological and neurotoxicity symptoms, rectal temperature and pupil diameter were recorded according to a standardized observation grid derived from that of Irwin. The grid contains the following items: death, convulsions, tremor, Straub tail, altered activity, jumping, abnormal gait (rolling, tip-toe), motor uncoordination, altered abdominal muscle tone, loss of grasping, akinesia, catalepsy, loss of traction, loss of balance, fore-paw treading, writhes, piloerection, stereotypies (sniffing, chewing, head movements), head twitches, scratching, altered respiration, aggression, altered fear/startle, altered reactivity to touch, ptosis, exophthalmia, loss of righting reflex, loss of corneal reflex, analgesia, defecation/diarrhea, salivation, lacrimation, rectal temperature (hypothermia/hyperthermia) and pupil diameter (myosis/mydriasis). The test substances were evaluated at 2 doses (10 and 60 mg/kg), administered p.o. immediately before the test, and compared with a vehicle control group. Observations were performed 15, 30, 60, 120 and 180 minutes after administration of the test substances/vehicles and also 24 hours later.

[6] = target: T1, FAAH (Homo sapiens (Human), UniProt O00519); conditions: cited from earlier work
[7] = tested on: rats; conditions: cited from earlier work; remark: listed apart in the source
[8] = target: T1, FAAH; assay: Assay Method 1: human FAAH assay (3H-anandamide hydrolysis in cell homogenate); format: biochemical; conditions: average of results
Procedure: A. Transfection of Cells with Human FAAH
(§1) A 10-cm tissue culture dish with a confluent monolayer of SK-N-MC cells was split 2 days (d) prior to transfection. Using sterile technique, the media was removed and the cells were detached from the dish by the addition of trypsin. One fifth of the cells were then placed onto a new 10-cm dish. Cells were grown in a 37° C. incubator with 5% CO2 in Minimal Essential Media Eagle with 10% Fetal Bovine Serum. After 2 d, cells were approximately 80% confluent. These cells were removed from the dish with trypsin and pelleted in a clinical centrifuge. The pellet was re-suspended in 400 μL complete media and transferred to an electroporation cuvette with a 0.4 cm gap between the electrodes. Supercoiled human FAAH cDNA (1 μg) was added to the cells and mixed. The voltage for the electroporation was set at 0.25 kV, and the capacitance was set at 960 μF. After electroporation, the cells were diluted into complete media (10 mL) and plated onto four 10-cm dishes. Because of the variability in the efficiency of electroporation, four different concentrations of cells were plated. The ratios used were 1:20, 1:10, and 1:5, with the remainder of the cells being added to the fourth dish. The cells were allowed to recover for 24 h before adding the selection media (complete media with 600 μg/mL G418). After 10 d, dishes were analyzed for surviving colonies of cells. […]

[9] = target: rat FAAH (Rattus norvegicus (Rat), UniProt P97612); assay: Assay Method 2: rat FAAH assay (3H-anandamide hydrolysis in cell homogenate); format: biochemical; conditions: average of results
Procedure: A. Transfection of Cells with Rat FAAH
as §1, with “rat” for “human”

[10] = tested on: CREAE mice; conditions: cited from earlier work
[11] = in vivo; cited from earlier work
[12] = in vivo; cited from earlier work; remark: listed apart in the source
[13] = read-out: 2D6 Bufuralol IC50, substrate bufuralol
[14] = read-out: 2D6 Dextromethorphan IC50, substrate dextromethorphan

CYP2D6, sequence (P10635 whole entry): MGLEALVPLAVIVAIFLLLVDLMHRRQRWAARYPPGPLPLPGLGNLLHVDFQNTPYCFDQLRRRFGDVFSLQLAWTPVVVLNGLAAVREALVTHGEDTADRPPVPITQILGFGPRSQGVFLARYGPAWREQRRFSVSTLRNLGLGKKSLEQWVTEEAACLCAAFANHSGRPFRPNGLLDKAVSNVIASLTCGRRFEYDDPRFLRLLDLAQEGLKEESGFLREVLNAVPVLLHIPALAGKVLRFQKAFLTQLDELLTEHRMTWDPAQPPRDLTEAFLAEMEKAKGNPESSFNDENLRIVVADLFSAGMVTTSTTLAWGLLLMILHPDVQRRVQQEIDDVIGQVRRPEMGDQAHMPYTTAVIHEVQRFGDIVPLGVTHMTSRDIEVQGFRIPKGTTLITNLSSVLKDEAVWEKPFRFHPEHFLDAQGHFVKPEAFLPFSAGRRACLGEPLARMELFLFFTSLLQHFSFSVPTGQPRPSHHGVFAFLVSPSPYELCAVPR
T1 sequence (O00519 whole entry): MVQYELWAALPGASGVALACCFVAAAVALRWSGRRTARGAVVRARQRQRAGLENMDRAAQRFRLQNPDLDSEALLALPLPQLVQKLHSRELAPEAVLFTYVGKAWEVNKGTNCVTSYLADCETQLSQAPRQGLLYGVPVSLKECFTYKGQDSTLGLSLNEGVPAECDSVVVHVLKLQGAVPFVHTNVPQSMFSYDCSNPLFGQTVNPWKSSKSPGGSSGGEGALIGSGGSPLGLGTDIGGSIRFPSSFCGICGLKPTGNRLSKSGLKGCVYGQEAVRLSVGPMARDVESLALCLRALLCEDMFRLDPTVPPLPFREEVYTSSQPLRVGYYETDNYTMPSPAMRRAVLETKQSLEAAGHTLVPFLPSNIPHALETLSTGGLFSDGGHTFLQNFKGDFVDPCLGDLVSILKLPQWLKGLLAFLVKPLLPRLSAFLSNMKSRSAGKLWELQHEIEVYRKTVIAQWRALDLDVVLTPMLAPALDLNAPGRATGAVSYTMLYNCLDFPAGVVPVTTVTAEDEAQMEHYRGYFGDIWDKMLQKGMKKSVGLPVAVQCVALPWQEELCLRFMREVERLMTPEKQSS
rat FAAH, sequence (P97612 whole entry): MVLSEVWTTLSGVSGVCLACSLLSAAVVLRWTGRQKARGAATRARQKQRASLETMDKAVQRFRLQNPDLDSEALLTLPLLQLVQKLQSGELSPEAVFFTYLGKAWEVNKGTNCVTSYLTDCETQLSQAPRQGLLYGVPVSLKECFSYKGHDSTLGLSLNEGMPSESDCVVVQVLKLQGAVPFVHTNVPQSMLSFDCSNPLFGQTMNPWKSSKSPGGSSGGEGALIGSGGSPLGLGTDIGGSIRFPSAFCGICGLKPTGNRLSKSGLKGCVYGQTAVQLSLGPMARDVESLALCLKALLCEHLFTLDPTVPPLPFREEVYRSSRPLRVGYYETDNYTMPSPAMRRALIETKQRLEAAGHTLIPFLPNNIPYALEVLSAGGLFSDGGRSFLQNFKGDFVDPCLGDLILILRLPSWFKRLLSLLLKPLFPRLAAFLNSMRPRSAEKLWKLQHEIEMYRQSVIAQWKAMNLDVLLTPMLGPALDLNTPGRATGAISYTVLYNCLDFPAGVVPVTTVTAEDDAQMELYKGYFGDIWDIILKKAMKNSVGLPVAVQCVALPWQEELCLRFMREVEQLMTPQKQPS

NC(=O)c1cccc(-c2cccc(OC(=O)NC3CCCCC3)c2)c1 [URB-597]
analgesic efficacy, formalin test [1]: analgesic efficacy | efficacy in model of anxiety [2]: efficacy | analgesic efficacy/activity, hot plate [3]: analgesic efficacy

O=C(Nc1cccnc1)N1CCN(Cc2ccc3c(c2)OC(F)(F)O3)CC1 [Comparator Compound]
IC50 [4, 13]: 3.2 µM | IC50 [4, 14]: 2 µM | Increased reactivity to touch (rats affected/tested) ([5]; 10 mg/kg p.o., at 15 min): all rats tested | Sedation (rats affected/tested) ([5]; 60 mg/kg p.o., 15 to 120 min): all rats tested | Hypothermia ([5]; 60 mg/kg p.o.): induced hypothermia | Decreased muscle tone (rats affected/tested) ([5]; 60 mg/kg p.o.): all rats | Abnormal gait (rolling) (rats affected/tested) ([5]; 60 mg/kg p.o., at 15 min): all rats tested

O=C(CCCCCCc1ccccc1)c1ncc(-c2ccccn2)o1 [OL-135]
FAAH inhibition [6]: potent inhibitor | analgesic activity, tail immersion [7]: analgesic activity | analgesic efficacy/activity, hot plate [3]: analgesic activity

O=C(Nc1cnccc1Cl)N1CCN(Cc2ccc3c(c2)OC(F)(F)O3)CC1 [Example 1]
IC50 [4, 13]: 24 µM | IC50 [4, 14]: 11 µM | IC50 [8]: 0.075 µM | Increased reactivity to touch (rats affected/tested) ([5]; 10 mg/kg p.o., at 180 min): (1/4) at | Abnormal gait (rats affected/tested) ([5]; 60 mg/kg p.o.): (0/4) | Hypothermia (rats affected/tested) ([5]; 60 mg/kg p.o.): (0/4) | Sedation (rats affected/tested) ([5]; 60 mg/kg p.o.): (0/4) | Increased abdominal muscle tone (rats affected/tested) ([5]; 60 mg/kg p.o., at 60 min): (1/4) at 60 min | Increased reactivity to touch (rats affected/tested) ([5]; 60 mg/kg p.o., at 60 min): (1/4) at 60 min | Increased reactivity to touch (rats affected/tested) ([5]; 60 mg/kg p.o., at 180 min): (1/4) at 180 min | IC50 [9]: 0.32 µM

Cl.O=C(Nc1cccnc1)N1CCN(Cc2ccc3c(c2)OC(F)(F)O3)CC1 [Comparator Compound HCl]
Increased reactivity to touch (rats affected/tested) ([5]; 10 mg/kg p.o., at 15 min): all 3 rats; also recorded: (3/3) at 15 | Sedative/depressant effects (sedation, motor signs and hypothermia) ([5]; 60 mg/kg p.o.): presence of sedative/depressant effects | Sedation (rats affected/tested) ([5]; 60 mg/kg p.o., 15 to 120 min): all 3 rats; also recorded: (3/3) 15 to 120 min | Hypothermia ([5]; 60 mg/kg p.o.): induced hypothermia; also recorded: slight induction at 15 | Decreased muscle tone (rats affected/tested) ([5]; 60 mg/kg p.o.): all 3 rats; also recorded: (3/3) at 60 to 120 | Abnormal gait (rolling) (rats affected/tested) ([5]; 60 mg/kg p.o., at 15 min): all 3 rats; also recorded: (3/3) at 15 min

Cl.O=C(Nc1cnccc1Cl)N1CCN(Cc2ccc3c(c2)OC(F)(F)O3)CC1
Increased reactivity to touch (rats affected/tested) ([5]; 10 mg/kg p.o., at 180 min, hydrochloride): 1 out of 4 | Sedative/depressant effects (sedation, motor signs and hypothermia) ([5]; 60 mg/kg p.o.): not observed | Increased abdominal muscle tone (rats affected/tested) ([5]; 60 mg/kg p.o., at 60 min): 1 out of 4 | Increased reactivity to touch (rats affected/tested) ([5]; 60 mg/kg p.o., at 60 min): 1 out of the 4 | Increased reactivity to touch (rats affected/tested) ([5]; 60 mg/kg p.o., at 180 min): 1 out of the 4 | General effects in the Irwin Test ([5]; dose-range 10-60 mg/kg p.o.): weak and transient arousing effects in only one rat | Other signs ([5]; up to 24 hours after administration, 10-60 mg/kg p.o.): no other signs were observed

CCCCCCCCCCCCCCCCS(=O)(=O)F [AM374]
spasticity [10]: significantly reduce spasticity

O=C(Nc1ccccc1)N1CCN(c2nc(-c3ccccc3)ns2)CC1 [4-(3-Phenyl-[1,2,4]thiadiazol-5-yl)-piperazine-1-carboxylic acid phenylamide]
efficacy in neuropathic pain model [11]: efficacious | efficacy in acute burn injury pain model [12]: efficacious
